# Reference: PMC7180948, “New Insights into 4-Anilinoquinazolines as Inhibitors of Cardiac Troponin I–Interacting Kinase (TNNi3K)” (Molecules, 2020)
# Experiments:
# [1] = target: IGF1R (Homo sapiens, UniProt P08069); experiment: biochemical; set-up: KINOMEscan competition binding panel (Eurofins DiscoverX), single concentration, % inhibition; settings: read-out: 7 at 1 µM % inhibition
# Description: (§1) KinomeScan® Assay on 7 and 15 was performed as previously described by EuroFins DiscoverX [24]. GSK114 (7) and 15 were submitted for a KINOMEscan® assay to explore the selectivity profile across >400 human kinases at a compound concentration of 1 µM. […] GSK114 (7) is a narrow-spectrum TNNi3K inhibitor but has some potent off-targets including GAK which has been previously reported for this chemotype. […] If utilized together this set of compounds could be useful to investigate TNNi3K biology.
# [2] = target: FLT3(R834Q) (Homo sapiens, UniProt P36888, R834Q); experiment: biochemical; set-up: KINOMEscan competition binding panel (Eurofins DiscoverX), single concentration, % inhibition; settings: read-out: 7 at 1 µM % inhibition
# Description: as §1
# [3] = target: T1, JNK3 (Homo sapiens, UniProt P53779); experiment: biochemical; set-up: KINOMEscan competition binding panel (Eurofins DiscoverX), single concentration, % inhibition; settings: read-out: 7 at 1 µM % inhibition
# T1 construct: gene MAPK10
# Description: as §1
# [4] = target: NEK6 (Homo sapiens, UniProt Q9HC98); experiment: biochemical; set-up: KINOMEscan competition binding panel (Eurofins DiscoverX), single concentration, % inhibition; settings: read-out: 7 at 1 µM % inhibition
# Description: as §1
# [5] = target: EGFR(L858R) (Homo sapiens, UniProt P00533, L858R); experiment: biochemical; set-up: KINOMEscan competition binding panel (Eurofins DiscoverX), single concentration, % inhibition; settings: read-out: 7 at 1 µM % inhibition
# Description: as §1
# [6] = target: CSNK1G3 (Homo sapiens, UniProt Q9Y6M4); experiment: biochemical; set-up: KINOMEscan competition binding panel (Eurofins DiscoverX), single concentration, % inhibition; settings: read-out: 7 at 1 µM % inhibition
# Description: as §1
# [7] = target: LIMK1 (Homo sapiens, UniProt P53667); experiment: biochemical; set-up: KINOMEscan competition binding panel (Eurofins DiscoverX), single concentration, % inhibition; settings: read-out: 7 at 1 µM % inhibition
# Description: as §1
# [8] = target: STK33 (Homo sapiens, UniProt Q9BYT3); experiment: biochemical; set-up: KINOMEscan competition binding panel (Eurofins DiscoverX), single concentration, % inhibition; settings: read-out: 7 at 1 µM % inhibition
# Description: as §1
# [9] = target: T2, RPS6KA4(Kin.Dom.2-C-terminal) (Homo sapiens, UniProt O75676); experiment: biochemical; set-up: KINOMEscan competition binding panel (Eurofins DiscoverX), single concentration, % inhibition; settings: read-out: 7 at 1 µM % inhibition
# T2 construct: Kin.Dom.2-C-terminal
# Description: as §1
# [10] = target: FLT3(K663Q) (Homo sapiens, UniProt P36888, K663Q); experiment: biochemical; set-up: KINOMEscan competition binding panel (Eurofins DiscoverX), single concentration, % inhibition; settings: read-out: 7 at 1 µM % inhibition
# Description: as §1
# [11] = target: PIK3CA(E542K) (Homo sapiens, UniProt P42336, E542K); experiment: biochemical; set-up: KINOMEscan competition binding panel (Eurofins DiscoverX), single concentration, % inhibition; settings: read-out: 7 at 1 µM % inhibition
# Description: as §1
# [12] = target: FLT3(D835Y) (Homo sapiens, UniProt P36888, D835Y); experiment: biochemical; set-up: KINOMEscan competition binding panel (Eurofins DiscoverX), single concentration, % inhibition; settings: read-out: 7 at 1 µM % inhibition
# Description: as §1
# [13] = target: CHEK2 (Homo sapiens, UniProt O96017); experiment: biochemical; set-up: KINOMEscan competition binding panel (Eurofins DiscoverX), single concentration, % inhibition; settings: read-out: 7 at 1 µM % inhibition
# Description: as §1
# [14] = target: T3, ERK8 (Homo sapiens, UniProt Q8TD08); experiment: biochemical; set-up: KINOMEscan competition binding panel (Eurofins DiscoverX), single concentration, % inhibition; settings: read-out: 7 at 1 µM % inhibition
# T3 construct: gene MAPK15
# Description: as §1
# [15] = target: T4, ABL1(E255K)-phosphorylated (Homo sapiens, UniProt P00519, E255K); experiment: biochemical; set-up: KINOMEscan competition binding panel (Eurofins DiscoverX), single concentration, % inhibition; settings: read-out: 7 at 1 µM % inhibition
# T4 construct: phosphorylated
# Description: as §1
# [16] = target: GRK3 (Homo sapiens, UniProt P35626); experiment: biochemical; set-up: KINOMEscan competition binding panel (Eurofins DiscoverX), single concentration, % inhibition; settings: read-out: 7 at 1 µM % inhibition
# Description: as §1
# [17] = target: EPHA3 (Homo sapiens, UniProt P29320); experiment: biochemical; set-up: KINOMEscan competition binding panel (Eurofins DiscoverX), single concentration, % inhibition; settings: read-out: 7 at 1 µM % inhibition
# Description: as §1
# [18] = target: T5, ARK5 (Homo sapiens, UniProt O60285); experiment: biochemical; set-up: KINOMEscan competition binding panel (Eurofins DiscoverX), single concentration, % inhibition; settings: read-out: 7 at 1 µM % inhibition
# T5 construct: gene NUAK1
# Description: as §1
# [19] = target: T6, RSK3(Kin.Dom.2-C-terminal) (Homo sapiens, UniProt Q15349); experiment: biochemical; set-up: KINOMEscan competition binding panel (Eurofins DiscoverX), single concentration, % inhibition; settings: read-out: 7 at 1 µM % inhibition
# T6 construct: gene RPS6KA2; Kin.Dom.2-C-terminal
# Description: as §1
# [20] = target: T7, TRKC (Homo sapiens, UniProt Q16288); experiment: biochemical; set-up: KINOMEscan competition binding panel (Eurofins DiscoverX), single concentration, % inhibition; settings: read-out: 7 at 1 µM % inhibition
# T7 construct: gene NTRK3
# Description: as §1
# [21] = target: EGFR(L861Q) (Homo sapiens, UniProt P00533, L861Q); experiment: biochemical; set-up: KINOMEscan competition binding panel (Eurofins DiscoverX), single concentration, % inhibition; settings: read-out: 7 at 1 µM % inhibition
# Description: as §1
# [22] = target: HCK (Homo sapiens, UniProt P08631); experiment: biochemical; set-up: KINOMEscan competition binding panel (Eurofins DiscoverX), single concentration, % inhibition; settings: read-out: 7 at 1 µM % inhibition
# Description: as §1
# [23] = target: STK36 (Homo sapiens, UniProt Q9NRP7); experiment: KINOMEscan at […], single concentration; type: binding
# [24] = target: T8, MEK5 (Homo sapiens, UniProt Q13163); experiment: KINOMEscan at […], single concentration; type: binding
# T8 construct: gene MAP2K5
# [25] = target: GAK (Homo sapiens, UniProt O14976); experiment: KINOMEscan at […], single concentration; type: binding
# T8 sequence (Q13163 whole entry): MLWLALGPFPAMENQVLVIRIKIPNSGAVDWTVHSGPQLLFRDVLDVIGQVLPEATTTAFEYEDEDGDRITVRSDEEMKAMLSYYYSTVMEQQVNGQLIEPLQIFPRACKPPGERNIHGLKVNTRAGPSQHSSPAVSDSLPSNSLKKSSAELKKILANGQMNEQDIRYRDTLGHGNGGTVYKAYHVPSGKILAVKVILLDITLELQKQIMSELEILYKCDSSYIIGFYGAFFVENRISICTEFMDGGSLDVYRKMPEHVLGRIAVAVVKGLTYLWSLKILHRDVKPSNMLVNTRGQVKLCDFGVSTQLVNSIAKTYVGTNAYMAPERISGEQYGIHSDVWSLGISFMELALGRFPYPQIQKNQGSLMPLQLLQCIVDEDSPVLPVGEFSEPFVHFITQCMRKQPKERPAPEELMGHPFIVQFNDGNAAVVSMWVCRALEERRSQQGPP
# Sequence of PIK3CA(E542K) (P42336 whole entry E542K): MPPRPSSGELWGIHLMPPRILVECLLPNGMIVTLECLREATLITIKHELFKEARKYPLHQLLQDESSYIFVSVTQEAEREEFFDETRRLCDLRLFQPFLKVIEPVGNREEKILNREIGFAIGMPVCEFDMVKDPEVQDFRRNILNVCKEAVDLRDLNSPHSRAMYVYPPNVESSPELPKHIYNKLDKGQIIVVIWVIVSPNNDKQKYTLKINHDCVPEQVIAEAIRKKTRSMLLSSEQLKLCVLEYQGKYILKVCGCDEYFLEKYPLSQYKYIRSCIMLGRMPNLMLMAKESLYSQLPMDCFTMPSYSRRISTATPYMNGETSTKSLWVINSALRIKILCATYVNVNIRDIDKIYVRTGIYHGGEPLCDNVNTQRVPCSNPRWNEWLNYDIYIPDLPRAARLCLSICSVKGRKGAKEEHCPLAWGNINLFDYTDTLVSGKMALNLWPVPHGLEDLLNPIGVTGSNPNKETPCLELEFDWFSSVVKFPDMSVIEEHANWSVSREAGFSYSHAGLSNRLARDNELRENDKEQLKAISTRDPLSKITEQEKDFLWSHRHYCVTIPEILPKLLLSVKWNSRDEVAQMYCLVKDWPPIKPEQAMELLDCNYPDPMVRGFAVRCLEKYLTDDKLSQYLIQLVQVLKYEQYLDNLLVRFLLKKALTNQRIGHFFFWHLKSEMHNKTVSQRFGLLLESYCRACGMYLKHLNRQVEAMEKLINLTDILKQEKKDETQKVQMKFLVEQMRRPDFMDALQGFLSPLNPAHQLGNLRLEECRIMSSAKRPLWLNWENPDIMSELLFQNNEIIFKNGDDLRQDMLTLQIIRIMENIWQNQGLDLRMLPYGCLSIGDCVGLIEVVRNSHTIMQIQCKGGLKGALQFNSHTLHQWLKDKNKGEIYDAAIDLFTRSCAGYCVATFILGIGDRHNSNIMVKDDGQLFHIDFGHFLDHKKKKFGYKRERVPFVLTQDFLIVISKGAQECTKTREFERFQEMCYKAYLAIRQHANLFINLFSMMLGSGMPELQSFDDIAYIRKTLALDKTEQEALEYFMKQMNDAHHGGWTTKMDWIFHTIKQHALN
# Sequence of EGFR(L861Q) (P00533 whole entry L861Q): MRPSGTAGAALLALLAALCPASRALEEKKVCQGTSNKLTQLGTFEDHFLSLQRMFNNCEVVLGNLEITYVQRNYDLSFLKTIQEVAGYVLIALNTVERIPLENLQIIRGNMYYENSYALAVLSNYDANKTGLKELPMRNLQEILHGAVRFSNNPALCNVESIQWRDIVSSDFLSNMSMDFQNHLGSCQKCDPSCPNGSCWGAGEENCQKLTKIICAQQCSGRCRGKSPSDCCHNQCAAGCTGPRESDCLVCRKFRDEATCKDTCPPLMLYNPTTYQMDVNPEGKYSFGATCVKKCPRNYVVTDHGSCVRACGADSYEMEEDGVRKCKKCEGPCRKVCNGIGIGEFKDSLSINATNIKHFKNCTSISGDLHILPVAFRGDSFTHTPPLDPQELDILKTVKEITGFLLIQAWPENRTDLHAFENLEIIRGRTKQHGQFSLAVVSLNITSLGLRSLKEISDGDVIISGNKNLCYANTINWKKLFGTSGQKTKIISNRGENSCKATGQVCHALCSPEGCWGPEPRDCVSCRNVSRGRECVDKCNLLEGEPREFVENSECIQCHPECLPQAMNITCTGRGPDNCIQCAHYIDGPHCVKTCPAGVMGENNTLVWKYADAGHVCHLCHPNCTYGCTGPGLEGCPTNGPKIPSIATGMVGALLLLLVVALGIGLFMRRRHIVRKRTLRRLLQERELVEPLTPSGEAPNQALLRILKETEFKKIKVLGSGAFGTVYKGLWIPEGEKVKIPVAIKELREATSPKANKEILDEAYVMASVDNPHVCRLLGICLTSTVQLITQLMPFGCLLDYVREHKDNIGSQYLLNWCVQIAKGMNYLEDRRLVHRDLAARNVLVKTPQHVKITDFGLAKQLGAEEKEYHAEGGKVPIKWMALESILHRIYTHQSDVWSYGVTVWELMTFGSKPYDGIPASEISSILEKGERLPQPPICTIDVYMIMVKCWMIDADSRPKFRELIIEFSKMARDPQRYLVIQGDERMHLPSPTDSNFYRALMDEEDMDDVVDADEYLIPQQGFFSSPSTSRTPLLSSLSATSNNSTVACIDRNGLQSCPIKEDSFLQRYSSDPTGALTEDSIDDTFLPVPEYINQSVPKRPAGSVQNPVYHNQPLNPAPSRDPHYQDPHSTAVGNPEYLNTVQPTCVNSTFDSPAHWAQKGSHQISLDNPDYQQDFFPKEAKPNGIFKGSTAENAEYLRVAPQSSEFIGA
# T1 sequence (P53779 whole entry): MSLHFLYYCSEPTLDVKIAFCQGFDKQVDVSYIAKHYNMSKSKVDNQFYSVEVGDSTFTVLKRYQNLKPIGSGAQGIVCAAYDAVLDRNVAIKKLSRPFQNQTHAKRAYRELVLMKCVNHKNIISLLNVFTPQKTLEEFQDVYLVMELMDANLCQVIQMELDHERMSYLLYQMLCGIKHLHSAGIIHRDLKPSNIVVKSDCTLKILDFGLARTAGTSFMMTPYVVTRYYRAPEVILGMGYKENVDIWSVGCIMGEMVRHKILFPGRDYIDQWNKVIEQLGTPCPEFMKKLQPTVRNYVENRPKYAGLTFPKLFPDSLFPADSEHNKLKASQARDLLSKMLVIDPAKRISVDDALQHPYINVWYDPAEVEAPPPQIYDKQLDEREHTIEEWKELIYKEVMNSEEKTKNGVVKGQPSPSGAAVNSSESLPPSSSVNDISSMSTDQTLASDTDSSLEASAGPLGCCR
# T6 sequence (Q15349 whole entry): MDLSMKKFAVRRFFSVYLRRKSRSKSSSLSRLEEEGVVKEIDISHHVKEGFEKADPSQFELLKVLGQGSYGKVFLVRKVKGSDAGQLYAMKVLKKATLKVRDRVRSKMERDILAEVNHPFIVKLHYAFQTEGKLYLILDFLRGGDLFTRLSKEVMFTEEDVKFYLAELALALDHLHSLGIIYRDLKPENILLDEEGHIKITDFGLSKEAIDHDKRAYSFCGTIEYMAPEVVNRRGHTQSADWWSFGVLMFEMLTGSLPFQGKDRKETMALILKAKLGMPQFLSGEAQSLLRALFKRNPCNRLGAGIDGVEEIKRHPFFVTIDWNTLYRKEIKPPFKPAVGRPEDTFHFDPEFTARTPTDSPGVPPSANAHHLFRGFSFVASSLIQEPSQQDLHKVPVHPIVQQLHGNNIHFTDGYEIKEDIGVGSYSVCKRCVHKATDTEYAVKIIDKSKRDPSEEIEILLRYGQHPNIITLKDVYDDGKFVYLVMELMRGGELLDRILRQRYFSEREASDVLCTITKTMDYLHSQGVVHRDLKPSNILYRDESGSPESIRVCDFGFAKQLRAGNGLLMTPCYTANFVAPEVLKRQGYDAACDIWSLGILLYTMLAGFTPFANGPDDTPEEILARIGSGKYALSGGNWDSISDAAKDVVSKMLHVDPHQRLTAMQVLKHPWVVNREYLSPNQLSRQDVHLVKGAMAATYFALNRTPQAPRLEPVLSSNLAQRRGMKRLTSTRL
# Sequence of CSNK1G3 (Q9Y6M4 whole entry): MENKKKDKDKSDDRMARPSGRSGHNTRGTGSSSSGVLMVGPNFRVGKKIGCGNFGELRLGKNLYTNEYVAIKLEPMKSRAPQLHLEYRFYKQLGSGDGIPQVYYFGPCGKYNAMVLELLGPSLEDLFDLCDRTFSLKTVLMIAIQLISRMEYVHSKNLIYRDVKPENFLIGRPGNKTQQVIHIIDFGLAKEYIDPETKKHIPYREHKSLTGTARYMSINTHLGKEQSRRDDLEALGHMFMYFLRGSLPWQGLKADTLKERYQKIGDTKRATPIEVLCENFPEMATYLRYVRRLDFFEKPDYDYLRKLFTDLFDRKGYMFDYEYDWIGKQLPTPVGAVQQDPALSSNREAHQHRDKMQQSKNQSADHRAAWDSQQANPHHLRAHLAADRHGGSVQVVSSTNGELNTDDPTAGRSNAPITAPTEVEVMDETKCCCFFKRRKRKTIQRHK
# T3 sequence (Q8TD08 whole entry): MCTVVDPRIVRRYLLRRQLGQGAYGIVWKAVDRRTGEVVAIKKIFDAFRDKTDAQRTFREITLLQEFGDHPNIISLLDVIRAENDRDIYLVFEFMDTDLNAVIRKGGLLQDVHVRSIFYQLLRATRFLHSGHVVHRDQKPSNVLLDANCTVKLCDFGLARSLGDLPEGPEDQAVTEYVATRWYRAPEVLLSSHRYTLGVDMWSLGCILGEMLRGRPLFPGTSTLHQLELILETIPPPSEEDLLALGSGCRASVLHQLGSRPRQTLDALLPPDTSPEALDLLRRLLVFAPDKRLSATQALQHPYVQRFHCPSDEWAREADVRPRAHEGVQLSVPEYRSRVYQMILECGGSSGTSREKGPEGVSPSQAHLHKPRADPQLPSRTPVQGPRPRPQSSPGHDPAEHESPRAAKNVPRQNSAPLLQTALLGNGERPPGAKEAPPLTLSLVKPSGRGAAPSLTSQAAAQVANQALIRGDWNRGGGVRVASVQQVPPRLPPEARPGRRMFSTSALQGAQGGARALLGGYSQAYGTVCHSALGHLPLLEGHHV
compound,measurement,setting,value
"CNS(=O)(=O)c1ccc(N(C)C)c(Nc2ncnc3cc(OC)c(OC)cc23)c1 [compound 7, 3-((6,7-dimethoxyquinazolin-4-yl)amino)-4-(dimethylamino)-N-methylbenzenesulfonamide]",inhibition at 1 µM,[1],0%
same,inhibition at 1 µM,[2],31%
same,inhibition at 1 µM,[3],0%
same,inhibition at 1 µM,[4],0%
same,inhibition at 1 µM,[5],8%
same,inhibition at 1 µM,[6],11%
same,inhibition at 1 µM,[7],0%
same,inhibition at 1 µM,[8],6%
same,inhibition at 1 µM,[9],9%
same,inhibition at 1 µM,[10],7%
same,inhibition at 1 µM,[11],17%
same,inhibition at 1 µM,[12],13%
same,inhibition at 1 µM,[13],11%
same,inhibition at 1 µM,[14],13%
same,inhibition at 1 µM,[15],34%
same,inhibition at 1 µM,[16],38%
same,inhibition at 1 µM,[17],5%
same,inhibition at 1 µM,[18],0%
same,inhibition at 1 µM,[19],0%
same,inhibition at 1 µM,[20],0%
same,inhibition at 1 µM,[21],0%
same,inhibition at 1 µM,[22],11%
same,inhibition at 1 µM,[23],94%
same,inhibition at 1 µM,[24],100%
same,inhibition at 1 µM,[25],92%
"CNS(=O)(=O)c1ccc(N(C)C)c(Nc2nc(C)nc3cc(OC)c(OC)cc23)c1 [compound 15, 3-((6,7-dimethoxy-2-methylquinazolin-4-yl)amino)-4-(dimethylamino)-N-methylbenzenesulfonamide]",inhibition at 1 µM,[24],92%
